# According to ChEMBL document CHEMBL4350967, “The Trifluoromethyl Group as a Bioisosteric Replacement of the Aliphatic Nitro Group in CB1 Receptor Positive Allosteric Modulators” (J Med Chem, 2019):
# Calls of active or inactive are those of the source. The rule behind the calls is not given here.
# Tests used:
# [1] = target: T1, Cannabinoid receptor 1 (Homo sapiens, UniProt P21554); assay: Positive allosteric modulation of human CB1 receptor expressed in CHOK1 cells assessed as increase in CP55940-induced beta-arrestin recruitment preincubated for 30 mins followed by CP55940 addition and measured after 90 to 180 mins by PathHunter assay; assay type: cell-based
# T1 sequence (P21554 whole entry): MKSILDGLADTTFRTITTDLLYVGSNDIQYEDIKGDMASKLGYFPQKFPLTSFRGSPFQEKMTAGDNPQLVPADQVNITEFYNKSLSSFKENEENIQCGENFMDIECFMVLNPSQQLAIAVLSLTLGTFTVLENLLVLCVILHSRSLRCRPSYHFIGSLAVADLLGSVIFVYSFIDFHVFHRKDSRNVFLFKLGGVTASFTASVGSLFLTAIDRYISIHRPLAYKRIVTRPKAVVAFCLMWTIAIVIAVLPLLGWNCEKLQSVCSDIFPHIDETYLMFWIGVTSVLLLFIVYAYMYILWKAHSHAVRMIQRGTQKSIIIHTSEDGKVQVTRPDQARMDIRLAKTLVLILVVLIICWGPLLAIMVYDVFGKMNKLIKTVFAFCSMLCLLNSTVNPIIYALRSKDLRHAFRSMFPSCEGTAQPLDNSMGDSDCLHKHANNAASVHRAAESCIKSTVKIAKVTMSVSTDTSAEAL
# [2] = target: T1, Cannabinoid receptor 1; assay: Agonist activity at human CB1 receptor expressed in CHOK1 cells assessed as induction of beta-arrestin recruitment measured after 30 mins by PathHunter assay; assay type: cell-based
# [3] = Half life in human liver microsomes at 3 uM in presence of NADPH by LC-MS/MS analysis; assay type: ADME, Microsome
# [4] = Half life in rat liver microsomes at 3 uM in presence of NADPH by LC-MS/MS analysis; assay type: ADME, Microsome
# [5] = Half life in mouse liver microsomes at 3 uM in presence of NADPH by LC-MS/MS analysis; assay type: ADME, Microsome
# [6] = target: T1, Cannabinoid receptor 1; assay: Agonist activity at human Gi/Go-coupled CB1 receptor expressed in CHOK1 cells assessed as inhibition of forskolin-stimulated cAMP production measured after 30 mins by Hit-hunter assay
# [7] = target: T1, Cannabinoid receptor 1; assay: Agonist activity at human Gi/Go-coupled CB1 receptor expressed in CHOK1 cells assessed as inhibition of forskolin-stimulated cAMP production measured after 30 mins by Hit-hunter assay relative to CP55940; assay type: cell-based; settings: 0.5 h
# [8] = target: T1, Cannabinoid receptor 1
# [9] = target: T1, Cannabinoid receptor 1; assay: Positive allosteric modulation of human CB1 receptor expressed in CHOK1 cells assessed as increase in CP55940-induced beta-arrestin recruitment at 500 nM preincubated for 30 mins followed by CP55940 addition and measured after 90 to 180 mins by PathHunter assay relative to CP55940; assay type: cell-based
# [10] = target: T1, Cannabinoid receptor 1; assay: Positive allosteric modulation of human CB1 receptor expressed in CHOK1 cells assessed as increase in CP55940-induced beta-arrestin recruitment preincubated for 30 mins followed by CP55940 addition and measured after 90 to 180 mins by PathHunter assay relative to CP55940; assay type: cell-based
# [11] = system: Mus musculus; assay: Psychoactive effect in C57BL/6J mouse assessed as effect on locomotor activity by measuring change in distance travelled at 40 mg/kg, ip measured after 30 mins; assay type: ADME, organism-based; settings: in vivo, 0.5 h
# [12] = target: T1, Cannabinoid receptor 1; assay: Positive allosteric modulation of human Gi/Go-coupled CB1 receptor expressed in CHOK1 cells assessed as increase in CP55940-induced inhibition of forskolin-stimulated cAMP production preincubated for 30 mins followed by CP55940 addition and measured after 30 to 60 mins by Hit-hunter assay relative to CP55940; assay type: functional, cell-based
# [13] = system: Mus musculus; assay: Psychoactive effect in C57BL/6J mouse assessed as effect on locomotor activity by measuring change in immobility time at 40 mg/kg, ip measured after 30 mins; assay type: ADME, organism-based; settings: in vivo, 0.5 h
# [14] = system: Mus musculus; assay: Psychoactive effect in C57BL/6J mouse assessed as change in immobility time at 40 mg/kg, ip measured after 30 mins by catalepsy bar test; assay type: ADME, organism-based; settings: in vivo, 0.5 h
# [15] = system: Mus musculus; assay: Psychoactive effect in C57BL/6J mouse assessed as antinociceptive effect at 40 mg/kg, ip measured after 30 mins by warm water tail withdrawal assay; assay type: ADME, organism-based; settings: in vivo, 0.5 h
# [16] = system: Mus musculus; assay: Psychoactive effect in C57BL/6J mouse assessed as hypothermia by measuring change in rectal temperature at 40 mg/kg, ip measured after 30 mins; assay type: ADME, organism-based; settings: in vivo, 0.5 h
# [17] = target: Cannabinoid receptor 1 (Mus musculus) (UniProt P47746); assay: Positive allosteric modulation of CB1 receptor in mouse brain membranes assessed as increase in [3H]CP55940 binding at 1 uM measured after 60 mins relative to control; assay type: cell membranes
# Cannabinoid receptor 1 (Mus musculus), sequence (P47746 whole entry): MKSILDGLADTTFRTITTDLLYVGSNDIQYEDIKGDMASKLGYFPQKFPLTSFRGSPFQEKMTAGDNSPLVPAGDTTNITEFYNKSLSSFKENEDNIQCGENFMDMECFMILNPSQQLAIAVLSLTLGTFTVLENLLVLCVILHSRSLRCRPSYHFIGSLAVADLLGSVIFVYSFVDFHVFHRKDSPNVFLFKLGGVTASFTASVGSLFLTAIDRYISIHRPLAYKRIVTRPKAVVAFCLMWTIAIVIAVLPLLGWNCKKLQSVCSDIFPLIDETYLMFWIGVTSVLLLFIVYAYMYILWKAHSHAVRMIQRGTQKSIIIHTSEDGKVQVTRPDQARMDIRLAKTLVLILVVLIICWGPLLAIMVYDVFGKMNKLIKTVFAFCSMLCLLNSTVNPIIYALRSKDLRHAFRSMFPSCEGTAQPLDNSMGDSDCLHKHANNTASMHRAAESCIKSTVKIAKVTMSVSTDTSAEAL
# [18] = target: T1, Cannabinoid receptor 1; assay: Positive allosteric modulation of human CB1 receptor expressed in CHOK1 cells assessed as increase in CP55940-induced beta-arrestin recruitment at 200 nM preincubated for 30 mins followed by CP55940 addition and measured after 90 to 180 mins by PathHunter assay relative to CP55940; assay type: cell-based
# [19] = system: Mus musculus; assay: Enhancement of CP55940-induced antinociceptive activity in C57BL/6J mouse assessed as increase in tail withdrawal latency at 40 mg/kg, ip pretreated for 15 mins followed by CP55940 addition and measured after 30 mins by warm water tail withdrawal assay; assay type: functional, organism-based
# [20] = system: Mus musculus; assay: Antiallodynic activity in C57BL/6J mouse model of CCI-induced neuropathic pain assessed as reduction in mechanical sensitivity in ipsilateral paw at 40 mg/kg, ip by Von frey filament test; assay type: functional, organism-based; settings: TDE = time-dependent effect
# [21] = system: Mus musculus; assay: Antiallodynic activity in C57BL/6J mouse model of CCI-induced neuropathic pain assessed as reduction in mechanical sensitivity in contralateral paw at 40 mg/kg, ip by Von frey filament test; assay type: functional, organism-based; settings: TDE = time-dependent effect
# [22] = target: T1, Cannabinoid receptor 1; assay: Positive allosteric modulation of human CB1 receptor expressed in CHOK1 cells assessed as increase in CP55940-induced beta-arrestin recruitment at 300 nM preincubated for 30 mins followed by CP55940 addition and measured after 90 to 180 mins by PathHunter assay relative to CP55940; assay type: cell-based
# [23] = target: T1, Cannabinoid receptor 1; assay: Positive allosteric modulation of human CB1 receptor expressed in CHOK1 cells assessed as increase in CP55940-induced beta-arrestin recruitment at 1000 nM preincubated for 30 mins followed by CP55940 addition and measured after 90 to 180 mins by PathHunter assay relative to CP55940; assay type: cell-based
smiles,measurement,setting,value
N#Cc1ccc2c([C@@H](CC(F)(F)F)c3cccs3)c(-c3ccccc3)[nH]c2c1,EC50,[1],363 nM
same,EC50,[2],828 nM
same,t1/2,[3],72.3 min
same,t1/2,[4],34.9 min
same,t1/2,[5],26.5 min
same,EC50,[6],29 nM
same,Emax,[7]; read-out: Emax,84%
same,EC50,[8],17 nM
N#Cc1ccc2c([C@H](CC(F)(F)F)c3cccs3)c(-c3ccccc3)[nH]c2c1,EC50,[1],342 nM
same,EC50,[2],1210 nM
same,EC50,[6],76 nM
same,Emax,[7]; read-out: Emax,89%
same,EC50,[8],40 nM
FC(F)(F)CC(c1cccs1)c1c(C2CCCC2)[nH]c2cc(C(F)(F)F)ccc12 (racemic),Activity,[9],> 50%
same,EC50,[1],301 nM
same,EC50,[2],755 nM
same,Emax,[10],162%
same,t1/2,[3],47.1 min
same,t1/2,[4],44.4 min
Cc1ccc2c(C(C[N+](=O)[O-])c3cccs3)c(-c3ccccc3)[nH]c2c1 (racemic),Activity,[9],> 50%
same,EC50,[1],283 nM
same,EC50,[2],777 nM
same,Emax,[10],106%
same,t1/2,[3],41.2 min
same,t1/2,[4],6.4 min
same,t1/2,[5],10.4 min
same,Activity,[11],Non-Toxic
same,EC50,[6],32 nM
same,Emax,[12],98%
same,Emax,[7]; read-out: Emax,94%
same,Activity,[13],Non-Toxic
same,Activity,[14],Non-Toxic
same,Activity,[15],Non-Toxic
same,Activity,[16],Non-Toxic
same,Activity,[17],127%
same,EC50,[8],18 nM
CC(=O)c1ccc2c(C(CC(F)(F)F)c3cccs3)c(-c3ccccc3)[nH]c2c1 (racemic),Activity,[18],> 50%
same,EC50,[1],158 nM
same,EC50,[2],741 nM
same,Emax,[10],121%
same,t1/2,[3],51.2 min
same,t1/2,[4],12.2 min
O=[N+]([O-])CC(c1cccs1)c1c(-c2ccccc2)[nH]c2cc(Cl)ccc12 (racemic),Activity,[9],> 50%
same,EC50,[1],462 nM
same,EC50,[2],1530 nM
same,t1/2,[3],32.7 min
same,t1/2,[4],13.8 min
FC(F)(F)CC(c1cccs1)c1c(-c2ccccc2)[nH]c2cc(C(F)(F)F)ccc12 (racemic),Activity,[9],> 50%
same,EC50,[1],322 nM
same,EC50,[2],801 nM
same,Emax,[10],203%
same,t1/2,[3],49.7 min
same,t1/2,[4],36.7 min
N#Cc1ccc2c(C(CC(F)(F)F)c3cccs3)c(-c3ccccc3)[nH]c2c1 (racemic),Activity,[19],Active
same,EC50,[1],177 nM
same,EC50,[2],647 nM
same,Activity,[11],Non-Toxic
same,Activity,[20],Tde
same,Activity,[21],Tde
same,Activity,[13],Non-Toxic
same,Activity,[14],Non-Toxic
same,Activity,[15],Non-Toxic
same,Activity,[16],Non-Toxic
COC(=O)c1ccc2c(C(CC(F)(F)F)c3cccs3)c(-c3ccccc3)[nH]c2c1 (racemic),Activity,[18],> 50%
same,Emax,[10],88%
Cc1ccc2c(C(C(=O)C(F)(F)F)c3ccccc3)c(-c3ccccc3)[nH]c2c1 (racemic),Activity,[9],> 50%
same,Activity,[22],50 to 100%
Cc1ccc2c(C(CC(F)(F)F)c3ccccc3)c(-c3ccccc3)[nH]c2c1 (racemic),Activity,[9],> 50%
same,Activity,[22],50 to 100%
Cc1ccc2c(C(CC(F)(F)F)c3cccs3)c(-c3ccccc3)[nH]c2c1 (racemic),Activity,[9],> 50%
FC(F)(F)CC(c1ccccc1)c1c(-c2ccccc2)[nH]c2cc(C(F)(F)F)ccc12 (racemic),Activity,[18],> 50%
FC(F)(F)CC(c1ccco1)c1c(-c2ccccc2)[nH]c2cc(Cl)ccc12 (racemic),Activity,[9],> 50%
FC(F)(F)CC(c1cccs1)c1c(-c2ccccc2)[nH]c2cc(Cl)ccc12 (racemic),Activity,[18],> 50%
"N#Cc1ccc2c(C(C[N+](=O)[O-])c3cccs3)c(-c3ccccc3)[nH]c2c1 (single isomer, unassigned; (+)) [listing 1 of 2 here]",EC50,[1],863 nM
same,EC50,[2],> 10000 nM
same,EC50,[6],251 nM
same,Emax,[7]; read-out: Emax,96%
same,EC50,[8],181 nM
"COC(=O)c1ccc2c(C(CC(F)(F)F)c3cccs3)c(-c3ccccc3)[nH]c2c1 (single isomer, unassigned; (+))",Activity,[18],> 50%
same,Emax,[10],156%
"N#Cc1ccc2c(C(C[N+](=O)[O-])c3cccs3)c(-c3ccccc3)[nH]c2c1 (single isomer, unassigned; (+)) [listing 2 of 2 here]",Activity,[23],> 50%
same,Emax,[10],51%
same,Emax,[12],102%
same,Activity,[17],99%
"N#Cc1ccc2c(C(C[N+](=O)[O-])c3cccs3)c(-c3ccccc3)[nH]c2c1 (single isomer, unassigned; (-)) [listing 1 of 2 here]",EC50,[1],664 nM
same,EC50,[2],> 10000 nM
same,EC50,[6],46 nM
same,Emax,[7],97%
same,EC50,[8],36 nM
"COC(=O)c1ccc2c(C(CC(F)(F)F)c3cccs3)c(-c3ccccc3)[nH]c2c1 (single isomer, unassigned; (-))",Activity,[18],> 50%
"N#Cc1ccc2c(C(C[N+](=O)[O-])c3cccs3)c(-c3ccccc3)[nH]c2c1 (single isomer, unassigned; (-)) [listing 2 of 2 here]",Activity,[23],> 50%
same,Emax,[10],117%
same,Emax,[12],99%
same,Activity,[17],108%
